In one series the test system is C57BL/6J mice. Kind of series: In vivo antihyperglycaemic/antidiabetic activity (OGTT), acute single dose 120-min time-course. Conditions: Mus musculus, 2 h; male C57BL/6J mice, acute single dose 0,3 mg/kg po, 120-min time-course, n = 6, Mean ± SEM; read-out: In vivo OGTT C57; % Glucose change. The protocol: Acute single dose 120-min time-course experiments were carried out in male C57BL/6J mice, age 8-12 weeks, bred in-house. Animals were housed in groups of 6 animals per cage, for a week, in order to habituate them to vivarium conditions (25±4° C., 60-65% relative humidity, 12: 12 h light: dark cycle, with lights on at 7.30 am). All the animal experiments were carried out according to the internationally valid guidelines following approval by the ‘Zydus Research Center animal ethical committee’.
The in-vivo glucose lowering properties of the test compounds were evaluated in C57BL/6J (mild hyperglycemic) animal models as described below. Two days prior to the study, the animals were randomized and divided into groups (n=6), based upon their fed glucose levels. On the day of experiment, food was withdrawn from all the cages, water was given ad-libitum and were kept for overnight fasting. Vehicle (normal saline)/test compounds were administered orally, on a body weight basis. Soon after the 0 min. blood collection from each animal, the subsequent blood collections were done at 30, 60 and 120 or upto 240 min., via retro-orbital route, under light ether anesthesia (Diabetes Obesity Metabolism, 7, 307, 2005; Diabetes, 52, 751, 2003).
Blood samples were centrifuged and the separated serum was immediately subjected for the glucose estimation. Serum for insulin estimation was stored at −70° C. until used for the insulin estimation. The glucose estimation was carried out with DPEC-GOD/POD method (Ranbaxy Fine Chemicals Limited, Diagnostic division, India), using Spectramax-190, in 96-microwell plate reader (Molecular devices Corporation, Sunnyvale, Calif.). […] The AUC and BCAUC obtained from graphs were analyzed for one way ANOVA, followed by Dunnett's post test, using Graph Pad prism software.

The nature of series [1]: Pharmacokinetic study in Wistar rats. Conditions: rat, plasma, po; male wistar rats, 2 mg/kg orally, n = 6, Mean ± SD. In kind it is in vivo. The protocol:
Pharmacokinetic Study in Wistar Rats
The pharmacokinetic parameters of test compounds were determined in male wistar rats (n=6). Briefly, test compounds were administered orally/iv on a body weight basis to overnight fasted rats. Serial blood samples were collected in microcentrifuge tubes containing EDTA at pre-dose and post-dose after compounds administration, over a period of 168 hrs. Blood was collected at various time points and centrifuged at 4° C. The obtained plasma was frozen, stored at −70° C. and the concentrations of compounds in plasma were determined by the LC-MS/MS (Shimadzu LC 1 OAD, USA), using YMC hydrosphere C18 (2.0×50 mm, 3 μm) column (YMC Inc., USA). The pharmacokinetic parameters, such as Tmax, t1/2, AUC and % F were calculated using a non-compartmental model of WinNonlin software version 5.2.1.

The target of a further series is T1, DPP-IV enzyme (Homo sapiens, UniProt P27487).
T1 construct: soluble human proteins (DPP-IV enzyme) produced in a baculovirus expression system; made in house; host or cells: baculovirus expression system (Life Technologies)
T1 sequence (P27487 39-766 limits assumed): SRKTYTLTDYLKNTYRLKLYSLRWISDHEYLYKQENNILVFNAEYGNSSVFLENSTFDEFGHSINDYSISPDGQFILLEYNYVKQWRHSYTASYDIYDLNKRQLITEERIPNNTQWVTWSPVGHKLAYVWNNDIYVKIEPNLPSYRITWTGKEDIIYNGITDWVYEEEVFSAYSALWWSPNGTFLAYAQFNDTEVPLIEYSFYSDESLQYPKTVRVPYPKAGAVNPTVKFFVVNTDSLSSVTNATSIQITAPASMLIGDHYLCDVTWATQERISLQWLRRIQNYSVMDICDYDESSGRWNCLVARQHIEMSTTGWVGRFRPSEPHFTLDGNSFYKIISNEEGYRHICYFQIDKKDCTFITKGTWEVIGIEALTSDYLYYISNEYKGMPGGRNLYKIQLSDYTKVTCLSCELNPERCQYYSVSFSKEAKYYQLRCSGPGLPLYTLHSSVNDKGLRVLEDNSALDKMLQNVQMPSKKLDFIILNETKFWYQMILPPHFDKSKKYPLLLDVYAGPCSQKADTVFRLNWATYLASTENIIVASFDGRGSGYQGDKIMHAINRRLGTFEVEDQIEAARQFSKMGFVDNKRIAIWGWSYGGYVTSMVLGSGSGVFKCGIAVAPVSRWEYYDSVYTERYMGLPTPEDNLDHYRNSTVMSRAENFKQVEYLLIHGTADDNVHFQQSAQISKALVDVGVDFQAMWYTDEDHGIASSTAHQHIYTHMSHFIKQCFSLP
Kind of series: In vitro DPP-IV inhibitory activity using enzymatic (fluorescence-based) assay. Conditions: soluble human DPP-IV, H-Gly-Pro-AMC 200 μM, pH 7.8, 25° C., 30 min; read-out: % In-vitro DPPIV Inhibition IC50. In kind it is biochemical. The protocol: In Vitro DPP-IV Inhibitory Activity Using Enzymatic Assay:
In vitro enzyme (DPP-IV) inhibitory activity was determined using fluorescence-based assay (Anal. Biochem., 200, 352, 1992). The Gly-Pro-AMC was used as a substrate (which is cleaved by the enzymes to release the fluorescent AMC) and soluble human proteins (DPP-IV enzyme) produced in a baculovirus expression system (Life Technologies) was used as the enzyme source. The H-Gly-Pro-AMC (200 μM) was incubated with DPP-IV enzyme in the presence of various concentrations (30 & 100 nM) of test compounds. Reaction was carried out at pH 7.8 (HEPES buffer 25 mM containing 1.0% BSA, 140 mM NaCl, 16 mM MgCl2, 2.8% DMSO) in a total volume of 100 μl at 25° C. for 30 min., in the dark. Reaction was terminated with acetic acid (25 μl of 25% solution). Activity (fluorescence) was measured using Spectra Max fluorometer (Molecular Devices, Sunnyvale Calif.) by exciting at 380 nm and emission at 460 nm.

One may read the AUC as concentration integrated over time. A lower AUC goes with less exposure. By Cmax is commonly meant the peak of the concentration-time curve. The term half-life denotes how long it takes for the measured level to halve. As a reminder, the IC50 is the concentration at which inhibition is half-maximal.

Turning to `CS(=O)(=O)N1CC2CN([C@H]3CO[C@H](c4cc(F)ccc4F)[C@@H](N)C3)CC2C1` (stereo partly drawn) [Compound 1, (2R,3S,5R)-2-(2,5-difluorophenyl)-5-(5-(methylsulfonyl)-hexahydro-pyrrolo[3,4-c]pyrrol-2(1H)-yl)tetrahydro-2H-pyran-3-amine], the change in vivo at 0.3 mg/kg with C57BL/6J mice was -22.5 ± 4.5%. In series [1], this compound gave an AUC of 888 ± 129 ng·h/mL, a Cmax of 148 ± 34.2 ng/mL and a half-life of 33.3 ± 2.07 h. Further, the IC50 on DPP-IV enzyme is less than 30 nM.
Consider `N[C@H]1C[C@@H](N2CC3COCC3C2)CO[C@@H]1c1cc(F)ccc1F` (stereo partly drawn) [Compound 3, (2R,3S,5R)-2-(2,5-difluorophenyl)-5-(tetrahydro-1H-furo[3,4-c]pyrrol-5(3H)-yl)tetrahydro-2H-pyran-3-amine], for which, in the series with C57BL/6J mice, the change in vivo at 0.3 mg/kg was -27.6 ± 1.6%. In series [1], the exposure (AUC) came out at 2970 ± 1070 ng·h/mL, the Cmax came to 301 ± 44.3 ng/mL and the half-life is 48.2 ± 11.1 h. The IC50 on DPP-IV enzyme is less than 100 nM.
Consider `CS(=O)(=O)N1CC2=C(CN([C@H]3CO[C@H](c4cc(F)ccc4F)[C@@H](N)C3)C2)C1` [Compound 8, (2R,3S,5R)-2-(2,5-difluorophenyl)-5-(5-(methylsulfonyl)-5,6-dihydropyrrolo[3,4-c]pyrrol-2(1H,3H,4H)-yl)tetrahydro-2H-pyran-3-amine], for which the change in vivo at 0.3 mg/kg with C57BL/6J mice is -49.1 ± 3.6%. In series [1], the AUC was determined as 4750 ± 647 ng·h/mL, the Cmax was found to be 459 ± 52.2 ng/mL and the half-life is 59.5 ± 6.44 h. In addition, the IC50 on DPP-IV enzyme is less than 10 nM.
`N[C@H]1C[C@@H](N2CC3=C(C2)CS(=O)(=O)C3)CO[C@@H]1c1cc(F)ccc1F` [Compound 17, 5-((3R,5S,6R)-5-amino-6-(2,5-difluorophenyl)tetrahydro-2H-pyran-3-yl)-3,4,5,6-tetrahydro-1H-thieno[3,4-c]pyrrole 2,2-dioxide]: the change in vivo at 0.3 mg/kg in the series on C57BL/6J mice was -27.3 ± 3.3%. In series [1], this compound gave an AUC of 1550 ± 114 ng·h/mL, a Cmax of 419 ± 45.5 ng/mL and a half-life of 32.5 ± 5.91 h.
Consider `N[C@H]1C[C@@H](N2CC3CS(=O)(=O)CC3C2)CO[C@@H]1c1cc(F)ccc1F` (stereo partly drawn) [Compound 43, 5-((3R,5S,6R)-5-amino-6-(2,5-difluorophenyl)tetrahydro-2H-pyran-3-yl)hexahydro-1H-thieno[3,4-c]pyrrole 2,2-dioxide], for which the change in vivo at 0.3 mg/kg with C57BL/6J mice is -15.5 ± 3.6%. Further, at DPP-IV enzyme, the IC50 is less than 30 nM.
As for `N[C@H]1C[C@@H](N2CC3=C(CNC3)C2)CO[C@@H]1c1cc(F)ccc1F` [Compound 44, (2R,3S,5R)-2-(2,5-difluorophenyl)-5-(5,6-dihydropyrrolo[3,4-c]pyrrol-2(1H,3H,4H)-yl)tetrahydro-2H-pyran-3-amine], the change in vivo at 0.3 mg/kg in the series with C57BL/6J mice is -12.5 ± 1.5%. Also, the IC50 on DPP-IV enzyme was less than 30 nM.
Consider `N[C@H]1C[C@@H](N2CC3=C(CN(C(=O)Nc4ccccc4)C3)C2)CO[C@@H]1c1cc(F)ccc1F` [Compound 45, 5-((3R,5S,6R)-5-amino-6-(2,5-difluorophenyl)tetrahydro-2H-pyran-3-yl)-N-phenyl-3,4,5,6-tetrahydropyrrolo[3,4-c]pyrrole-2(1H)-carboxamide], for which the change in vivo at 0.3 mg/kg with C57BL/6J mice was -34.9 ± 4.4%. Further, the IC50 at DPP-IV enzyme was less than 10 nM.
With `CC(=O)N[C@H]1C[C@@H](N2CC3=C(C2)CN(S(C)(=O)=O)C3)CO[C@@H]1c1cc(F)ccc1F` [Compound 46, N-((2R,3S,5R)-2-(2,5-difluorophenyl)-5-(5-(methylsulfonyl)-5,6-dihydropyrrolo[3,4-c]pyrrol-2(1H,3H,4H)-yl)tetrahydro-2H-pyran-3-yl)acetamide], the change in vivo at 0.3 mg/kg with C57BL/6J mice was -9.3 ± 3.8%. Besides, the IC50 at DPP-IV enzyme is less than 100 nM.
On the same counts, the results for `CC(=O)N[C@H]1C[C@@H](N2CC3=C(CN(C(C)=O)C3)C2)CO[C@@H]1c1cc(F)ccc1F` [Compound 47, N-((2R,3S,5R)-5-(5-acetyl-5,6-dihydropyrrolo[3,4-c]pyrrol-2(1H,3H,4H)-yl)-2-(2,5-difluorophenyl)tetrahydro-2H-pyran-3-yl)acetamide] are 8.6 ± 5.9% and less than 100 nM.
As to `N[C@H]1C[C@@H](N2CC3=C(CN(C=O)C3)C2)CO[C@@H]1c1cc(F)ccc1F` [Compound 48, 5-((3R,5S,6R)-5-amino-6-(2,5-difluorophenyl)tetrahydro-2H-pyran-3-yl)-3,4,5,6-tetrahydropyrrolo[3,4-c]pyrrole-2(1H)-carbaldehyde], in the series with C57BL/6J mice, the change in vivo at 0.3 mg/kg is -38.5 ± 1.5%. Besides, the concentration for half-maximal inhibition (IC50) at DPP-IV enzyme was less than 10 nM.
With `N[C@H]1C[C@@H](N2CC3=C(CN(C(=O)C(F)(F)F)C3)C2)CO[C@@H]1c1cc(F)ccc1F` [Compound 50, 1-(5-((3R,5S,6R)-5-amino-6-(2,5-difluorophenyl)tetrahydro-2H-pyran-3-yl)-5,6-dihydropyrrolo[3,4-c]pyrrol-2(1H,3H,4H)-yl)-2,2,2-trifluoroethanone], the change in vivo at 0.3 mg/kg in the series on C57BL/6J mice is -30 ± 1.4%. Also, the IC50 on DPP-IV enzyme is less than 10 nM.

Source of the values: patent US20150246025A1, “2-PHENYL-5-HETEROCYCLYL-TETRAHYDRO-2H-PYRAN-3-AMINE COMPOUNDS FOR USE IN THE TREATMENT OF DIABETES AND ITS ASSOCIATED DISORDERS” (CADILA HEALTHCARE LIMITED, priority 2012, published 2015).
